Patent US7470781B2, “Formulation of stabilized cationic transfection agent(s)/nucleic acid particles” (Aventis Pharma S.A., priority 1997, dated 2008)

What was measured:
[1] = Size (hydrodynamic diameter) of cationic lipid/DNA complexes by photon correlation spectroscopy; assay type: physicochemical; conditions: component alone incubated with 1% (weight/volume) poloxalkol
Description: The measurement of the hydrodynamic diameter is carried out with a Coulter N4Plus, using plastic cells (four transparent faces) filled with 800 μl of the various solutions, the measurement being carried out at […] in unimodal mode.
The plasmid (10 μg/ml) is placed in a solution containing 150 mM NaCl and various concentrations of poloxalkol. The lipofectant RPR 120535 is then added in order to obtain a charge ratio (+/−) 2.5. The size of the complexes is then measured by photon correlation spectroscopy according to the procedure described in Methods.
The plasmid (10 μg/ml) is placed in a solution containing 150 mM NaCl at various concentrations of poloxalkol. RPR 120531 is then added in order to obtain a charge ratio (+/−) 2.5. The size of the complexes is measured by photon correlation spectroscopy (Coulter N4plus).
Table V below represents the diameter, in nm, of the RPR 120535/DNA complexes, at the charge ratio of 2.75 (+/−) and containing 0.25 mg of DNA/ml in 150 mM NaCl, stabilized with various nonionic surface-active agents.

mice = test: Transfection in vivo after systemic injection, luciferase activity in organs; set-up: unit not given here; conditions: balbc mouse, 24 hours after tail vein injection
Description: The in vivo transfections are carried out by injecting, into the vein of the tail of 30-day-old mice, 200 μl of a solution containing 0.2 mg DNA/ml combined with a cationic lipid vector. 24 hours after the injection, the mice are humanely killed and then various organs are recovered (lung, liver, heart, kidney, spleen). These organs are then ground in a lysis buffer with the aid of an Ultraturax. The ground products obtained are then centrifuged, and then 10 μl of the supernatant is collected in order to assay the luciferase activity.
We compared the gene transfer efficiencies after systemic injections of precipitated RPR 120535/DNA complexes, and of these same complexes stabilized by the addition of Pluronic F68®. […] On the other hand, when the particles are colloidally stabilized by the addition of F68®, the luciferase activity is increased by a factor of 10 in the lungs, and expression is observed in other tissues (liver, heart).
Identical experiments to those described above were carried out using another lipid: BGTC. Similar results were obtained, namely an improvement in gene transfer in the lungs and a measurable expression in the liver, the heart and the kidneys. […] Indeed, given that nonviral lipid vectors are used, these complexes might have been expected to be destabilized by the presence of these endogenous lipids in a large quantity. The results of in vivo transfection of BGTC/DOPE/DNA complexes in the absence or in the presence of poloxalkol are assembled in Table IV below: […]

[2] = Structure of complexes by low-angle X-ray diffraction and cryo-transmission electron microscopy; assay type: physicochemical
Description: The cryo-transmission electron microscopy (cryo-TEM) experiments are carried out with 7 μl of prepared samples containing 0.5 mg of DNA/ml, which are placed on a carbon-coated copper grid covered with a membrane with holes. The grids are then immersed in liquid ethane so as to convert the liquid water to vitrified water. Next, this grid is installed inside a specimen holder cooled with liquid nitrogen and introduced into the microscope (Philips CM12) for visualization.
The low-angle X-ray diffraction experiments are carried out in the synchrotron (LURE) in Orsay (France) on the D43 line. The samples are prepared at 0.5 mg DNA/ml and then centrifuged. The pellets are deposited in a cell in which the two windows consist of kapton. A germanium-containing monochromator (111 reflection) allows the selection of the wavelength of 0.138 nm.
In this study, we have determined, by low-angle X-ray diffraction and by transmission electron microscopy, the structure of the cationic lipid transfectant/DNA complexes.

particles detectable by Quasi-Elastic Diffusion of light [1] | periodicity of lamellar structure ([2]; in the absence and in the presence of poloxalkol) [nm] | size of complexes ([2]; presence of poloxalkol) | SMILES | luciferase activity, Heart (mice; 0% F68) | luciferase activity, Kidneys (mice; 0% F68) | luciferase activity, Liver (mice; 0% F68) | luciferase activity, Lungs (mice; 0% F68) | luciferase activity, Heart (mice; 10% F68) | luciferase activity, Kidneys (mice; 10% F68) | luciferase activity, Liver (mice; 10% F68) | luciferase activity, Lungs (mice; 10% F68)
does not form particles |  |  | CCCCCCCCCCCCCCCCCCN(CCCCCCCCCCCCCCCCCC)C(=O)CNC(=O)CNCCCNCCCCNCCCN [RPR 120535, H2N(CH2)3NH(CH2)4NH (CH2)3NHCH2COGlyN[(CH2)17CH3]2] | 0 | 0 | 0 | 2 ± 0.9 | 1 ± 0.4 | 0 | 2 ± 3 | 14 ± 0.9
 | 6.5 | small-sized complexes | CC(C)CCC[C@@H](C)[C@H]1CC[C@H]2[C@@H]3CC=C4C[C@@H](OC(=O)NCCN(CCN=C(N)N)CCN=C(N)N)CC[C@]4(C)[C@H]3CC[C@]12C [BGTC] |  |  |  |  |  |  |  | 
